In ChEMBL document CHEMBL1153552, “Comparative in vitro pharmacodynamics of caspofungin, micafungin, and anidulafungin against germinated and nongerminated Aspergillus conidia” (2008):
Activity calls are given as the source filed them. The rule behind the calls is not given here. Numbered stars: 1 amine (or outer) side, 2 acyl side, 3 side chain; on linkers, the order of the positions; unused ones are H or OH. Bridge positions count the residues as written; N and C are the ends. Square brackets hold non-standard residues; d marks the D form. Peptide text beside a SMILES is read from it. * marks the point of attachment. pTerphenylCO(4''-OnC5H11) = CCCCCOc1ccc(-c2ccc(-c3ccc(C(=O)*)cc3)cc2)cc1; Orn(4R-OH,5R-OH) = O=C([C@H](C[C@@H](O)[C@@H](O)N[*:3])N[*:1])[*:2]; hTyr(3S-OH,4S-OH) = N[C@H](C(=O)O)[C@H](O)[C@@H](O)c1ccc(O)cc1; Pro(3S-OH,4S-Me) = C[C@H]1CN[C@H](C(=O)O)[C@H]1O; Hyp = O=C(O)[C@@H]1C[C@@H](O)CN1

What was measured:
[1] = tested on: Aspergillus fumigatus; assay: Antifungal activity against nongerminated Aspergillus fumigatus assessed as absence of visual fungal growth at 64 ug/mL; type: functional, organism-based
[2] = tested on: Aspergillus terreus; assay: Antifungal activity against nongerminated Aspergillus terreus assessed as absence of visual fungal growth at 128 ug/mL; type: functional, organism-based
[3] = tested on: Aspergillus terreus; assay: Effect on Aspergillus terreus metabolic activity assessed number of twofold drug dilutions required for germinated fungal metabolic activity to nongerminated fungal metabolic activity; type: functional
[4] = tested on: Aspergillus flavus; assay: Increase in metabolic activity of germinated Aspergillus flavus assessed as formation of short, stubby aberrant hyphae at 0.03 ug/mL after 48 hrs by XTT assay; type: functional, organism-based
[5] = tested on: Aspergillus flavus; assay: Induction of maximal metabolic inhibition in germinated Aspergillus flavus assessed as minimal metabolic activity Ymin after 2 hrs by XTT assay; type: functional; design: scale not given: the % may be the effect or the level left
[6] = tested on: Aspergillus fumigatus; assay: Antifungal activity against germinated Aspergillus fumigatus assessed as absence of visual fungal growth at 64 ug/mL; type: functional, organism-based
[7] = tested on: Aspergillus flavus; assay: Increase in metabolic activity of nongerminated Aspergillus flavus assessed as elongation of short, stubby aberrant hyphae at 16 ug/mL after 48 hrs by XTT assay; type: functional, organism-based
[8] = tested on: Aspergillus flavus; assay: Effect on nongerminated Aspergillus flavus metabolic activity assessed as drug concentration at which fungal metabolic activity occurs after 2 hrs by XTT assay; type: functional
[9] = tested on: Aspergillus terreus; assay: Antifungal activity against germinated Aspergillus terreus assessed as lowest drug concentration that produced short, stubby and highly branched hyphae after 48 hrs by microscopic analysis; type: functional; conditions: read-out: MEC
[10] = tested on: Aspergillus terreus; assay: Induction of maximal metabolic inhibition in germinated Aspergillus terreus assessed as minimal metabolic activity Ymin after 2 hrs by XTT assay; type: functional; design: scale not given: the % may be the effect or the level left
[11] = tested on: Aspergillus fumigatus; assay: Induction of maximal metabolic inhibition in nongerminated Aspergillus fumigatus assessed as minimal metabolic activity Ymin after 2 hrs by XTT assay; type: functional; design: scale not given: the % may be the effect or the level left
[12] = tested on: Aspergillus flavus; assay: Antifungal activity against nongerminated Aspergillus flavus assessed as absence of visual fungal growth at 128 ug/mL; type: functional, organism-based
[13] = tested on: Aspergillus fumigatus; assay: Increase in metabolic activity of nongerminated Aspergillus fumigatus assessed as formation of short, stubby aberrant hyphae at 0.03 ug/mL after 48 hrs by XTT assay; type: functional, organism-based
[14] = tested on: Aspergillus terreus; assay: Antifungal activity against nongerminated Aspergillus terreus assessed as absence of visual fungal growth at 64 ug/mL; type: functional, organism-based
[15] = tested on: Aspergillus terreus; assay: Increase in metabolic activity of germinated Aspergillus terreus assessed as elongation of short, stubby aberrant hyphae at 2 ug/mL after 48 hrs by XTT assay; type: functional, organism-based
[16] = tested on: Aspergillus fumigatus; assay: Induction of maximal metabolic inhibition in germinated Aspergillus fumigatus assessed as minimal metabolic activity Ymin after 2 hrs by XTT assay; type: functional; design: scale not given: the % may be the effect or the level left
[17] = tested on: Aspergillus fumigatus; assay: Effect on germinated Aspergillus fumigatus metabolic activity assessed as drug concentration at which fungal metabolic activity occurs after 2 hrs by XTT assay; type: functional
[18] = tested on: Aspergillus fumigatus; assay: Increase in metabolic activity of germinated Aspergillus fumigatus assessed as formation of short, stubby aberrant hyphae at 0.03 ug/mL after 48 hrs by XTT assay; type: functional, organism-based
[19] = tested on: Aspergillus fumigatus; assay: Antifungal activity against nongerminated Aspergillus fumigatus assessed as absence of visual fungal growth at 128 ug/mL; type: functional, organism-based
[20] = tested on: Aspergillus terreus; assay: Effect on nongerminated Aspergillus terreus metabolic activity assessed as drug concentration at which fungal metabolic activity occurs after 2 hrs by XTT assay; type: functional
[21] = tested on: Aspergillus terreus; assay: Antifungal activity against germinated Aspergillus terreus assessed as absence of visual fungal growth at 128 ug/mL; type: functional, organism-based
[22] = tested on: Aspergillus flavus; assay: Antifungal activity against nongerminated Aspergillus flavus assessed as lowest drug concentration that produced short, stubby and highly branched hyphae after 48 hrs by microscopic analysis; type: functional; conditions: read-out: MEC
[23] = tested on: Aspergillus flavus; assay: Effect on germinated Aspergillus flavus metabolic activity assessed as drug concentration at which fungal metabolic activity occurs after 2 hrs by XTT assay; type: functional
[24] = tested on: Aspergillus terreus; assay: Ratio of log2 of MEC for germinated Aspergillus terreus to log2 of MEC for nongerminated Aspergillus terreus; type: functional
[25] = tested on: Aspergillus flavus; assay: Antifungal activity against germinated Aspergillus flavus assessed as absence of visual fungal growth at 128 ug/mL; type: functional, organism-based
[26] = tested on: Aspergillus flavus; assay: Ratio of log2 of MEC for germinated Aspergillus flavus to log2 of MEC for nongerminated Aspergillus flavus; type: functional
[27] = tested on: Aspergillus flavus; assay: Effect on Aspergillus flavus metabolic activity assessed number of twofold drug dilutions required for germinated fungal metabolic activity to nongerminated fungal metabolic activity; type: functional
[28] = tested on: Aspergillus terreus; assay: Increase in metabolic activity of nongerminated Aspergillus terreus assessed as elongation of short, stubby aberrant hyphae at 16 ug/mL after 48 hrs by XTT assay; type: functional, organism-based
[29] = tested on: Aspergillus fumigatus; assay: Ratio of log2 of MEC for germinated Aspergillus fumigatus to log2 of MEC for nongerminated Aspergillus fumigatus; type: functional
[30] = tested on: Aspergillus fumigatus; assay: Increase in metabolic activity of germinated Aspergillus fumigatus assessed as elongation of short, stubby aberrant hyphae at 16 ug/mL after 48 hrs by XTT assay; type: functional, organism-based
[31] = tested on: Aspergillus flavus; assay: Increase in metabolic activity of germinated Aspergillus flavus assessed as elongation of short, stubby aberrant hyphae at 2 ug/mL after 48 hrs by XTT assay; type: functional, organism-based
[32] = tested on: Aspergillus fumigatus; assay: Antifungal activity against germinated Aspergillus fumigatus assessed as lowest drug concentration that produced short, stubby and highly branched hyphae after 48 hrs by microscopic analysis; type: functional; conditions: read-out: MEC
[33] = tested on: Aspergillus fumigatus; assay: Antifungal activity against nongerminated Aspergillus fumigatus assessed as lowest drug concentration that produced short, stubby and highly branched hyphae after 48 hrs by microscopic analysis; type: functional; conditions: read-out: MEC
[34] = tested on: Aspergillus flavus; assay: Antifungal activity against nongerminated Aspergillus flavus assessed as absence of visual fungal growth at 64 ug/mL; type: functional, organism-based
[35] = tested on: Aspergillus flavus; assay: Antifungal activity against germinated Aspergillus flavus assessed as absence of visual fungal growth at 64 ug/mL; type: functional, organism-based
[36] = tested on: Aspergillus fumigatus; assay: Increase in metabolic activity of nongerminated Aspergillus fumigatus elongation of short, stubby aberrant hyphae at 16 ug/mL after 48 hrs by XTT assay; type: functional, organism-based
[37] = tested on: Aspergillus terreus; assay: Induction of maximal metabolic inhibition in nongerminated Aspergillus terreus assessed as minimal metabolic activity Ymin after 2 hrs by XTT assay; type: functional; design: scale not given: the % may be the effect or the level left
[38] = tested on: Aspergillus flavus; assay: Induction of maximal metabolic inhibition in nongerminated Aspergillus flavus assessed as minimal metabolic activity Ymin after 2 hrs by XTT assay; type: functional; design: scale not given: the % may be the effect or the level left
[39] = tested on: Aspergillus terreus; assay: Antifungal activity against germinated Aspergillus terreus assessed as absence of visual fungal growth at 64 ug/mL; type: functional, organism-based
[40] = tested on: Aspergillus fumigatus; assay: Effect on Aspergillus fumigatus metabolic activity assessed number of twofold drug dilutions required for germinated fungal metabolic activity to nongerminated fungal metabolic activity; type: functional
[41] = tested on: Aspergillus flavus; assay: Antifungal activity against germinated Aspergillus flavus assessed as lowest drug concentration that produced short, stubby and highly branched hyphae after 48 hrs by microscopic analysis; type: functional; conditions: read-out: MEC
[42] = tested on: Aspergillus flavus; assay: Increase in metabolic activity of germinated Aspergillus flavus assessed as elongation of short, stubby aberrant hyphae at 16 ug/mL after 48 hrs by XTT assay; type: functional, organism-based
[43] = tested on: Aspergillus terreus; assay: Increase in metabolic activity of germinated Aspergillus terreus assessed as formation of short, stubby aberrant hyphae at 0.03 ug/mL after 48 hrs by XTT assay; type: functional, organism-based
[44] = tested on: Aspergillus flavus; assay: Increase in metabolic activity of nongerminated Aspergillus flavus assessed as elongation of short, stubby aberrant hyphae at 2 ug/mL after 48 hrs by XTT assay; type: functional, organism-based
[45] = tested on: Aspergillus fumigatus; assay: Increase in metabolic activity of germinated Aspergillus fumigatus assessed as elongation of short, stubby aberrant hyphae at 2 ug/mL after 48 hrs by XTT assay; type: functional, organism-based
[46] = tested on: Aspergillus terreus; assay: Increase in metabolic activity of germinated Aspergillus terreus assessed as elongation of short, stubby aberrant hyphae at 16 ug/mL after 48 hrs by XTT assay; type: functional, organism-based
[47] = tested on: Aspergillus fumigatus; assay: Antifungal activity against germinated Aspergillus fumigatus assessed as absence of visual fungal growth at 128 ug/mL; type: functional, organism-based
[48] = tested on: Aspergillus flavus; assay: Increase in metabolic activity of nongerminated Aspergillus flavus assessed as formation of short, stubby aberrant hyphae at 0.03 ug/mL after 48 hrs by XTT assay; type: functional, organism-based
[49] = tested on: Aspergillus fumigatus; assay: Effect on nongerminated Aspergillus fumigatus metabolic activity assessed as drug concentration at which fungal metabolic activity occurs after 2 hrs by XTT assay; type: functional
[50] = tested on: Aspergillus terreus; assay: Antifungal activity against nongerminated Aspergillus terreus assessed as lowest drug concentration that produced short, stubby and highly branched hyphae after 48 hrs by microscopic analysis; type: functional; conditions: read-out: MEC
[51] = tested on: Aspergillus terreus; assay: Effect on germinated Aspergillus terreus metabolic activity assessed as drug concentration at which fungal metabolic activity occurs after 2 hrs by XTT assay; type: functional
[52] = tested on: Aspergillus terreus; assay: Increase in metabolic activity of nongerminated Aspergillus terreus assessed as elongation of short, stubby aberrant hyphae at 2 ug/mL after 48 hrs by XTT assay; type: functional, organism-based
[53] = tested on: Aspergillus terreus; assay: Increase in metabolic activity of nongerminated Aspergillus terreus assessed as formation of short, stubby aberrant hyphae at 0.03 ug/mL after 48 hrs by XTT assay; type: functional, organism-based
[54] = tested on: Aspergillus fumigatus; assay: Increase in metabolic activity of nongerminated Aspergillus fumigatus assessed as elongation of short, stubby aberrant hyphae at 2 ug/mL after 48 hrs by XTT assay; type: functional, organism-based

SMILES: CCCCCOc1ccc(-c2ccc(-c3ccc(C(=O)N[C@H]4C[C@@H](O)[C@@H](O)NC(=O)[C@@H]5[C@@H](O)[C@@H](C)CN5C(=O)[C@H]([C@@H](C)O)NC(=O)[C@H]([C@H](O)[C@@H](O)c5ccc(O)cc5)NC(=O)[C@@H]5C[C@@H](O)CN5C(=O)[C@H]([C@@H](C)O)NC4=O)cc3)cc2)cc1 [ANIDULAFUNGIN] ({pTerphenylCO(4''-OnC5H11)}-[Orn(4R-OH,5R-OH)]T[Hyp][hTyr(3S-OH,4S-OH)]T[Pro(3S-OH,4S-Me)]; lactam 1-C)
- Activity [1]: inactive
- Activity [2]: inactive
- Ratio [3]: 2.97
- Activity [4]: Active
- Activity [5]: 16%
- Activity [6]: inactive
- Activity [7]: Active
- EC5 [8]: 0.01 µg/mL
- minimal effective concentration [9]: 0.25 µg/mL
- Activity [10]: 44%
- Activity [11]: 26%
- Activity [12]: inactive
- Activity [13]: Active
- Activity [14]: inactive
- Activity [15]: Active
- Activity [16]: 36%
- EC5 [17]: 0.11 µg/mL
- Activity [18]: Active
- Activity [19]: inactive
- EC5 [20]: 0.01 µg/mL
- Activity [21]: inactive
- minimal effective concentration [22]: 0.03 µg/mL
- EC5 [23]: 0.09 µg/mL
- Ratio [24]: 3
- Activity [25]: inactive
- Ratio [26]: 2.5
- Ratio [27]: 2.96
- Activity [28]: Active
- Ratio [29]: 2
- Activity [30]: Active
- Activity [31]: Active
- minimal effective concentration [32]: 0.12 µg/mL
- minimal effective concentration [33]: 0.03 µg/mL
- Activity [34]: inactive
- Activity [35]: inactive
- Activity [36]: Active
- Activity [37]: 30%
- Activity [38]: 16%
- Activity [39]: inactive
- Ratio [40]: 2.4
- minimal effective concentration [41]: 0.25 µg/mL
- Activity [42]: Active
- Activity [43]: Active
- Activity [44]: Active
- Activity [45]: Active
- Activity [46]: Active
- Activity [47]: inactive
- Activity [48]: Active
- EC5 [49]: 0.03 µg/mL
- minimal effective concentration [50]: 0.03 µg/mL
- EC5 [51]: 0.1 µg/mL
- Activity [52]: Active
- Activity [53]: Active
- Activity [54]: Active
